Measured values: the NIST ThermoML archive (doi:10.1016/j.tca.2011.01.039)
Numbers after ± are expanded uncertainties.

Details: Fluid (supercritical or subcritical phases)

SMILES: O=C=O [carbon dioxide]
- mass density (308 K, 10000 kPa): 714.84 ± 7.1 kg/m3
- mass density (308 K, 12000 kPa): 768.42 ± 5.7 kg/m3
- mass density (308 K, 15000 kPa): 816.06 ± 5.3 kg/m3
- mass density (308 K, 18000 kPa): 848.87 ± 5.2 kg/m3
- mass density (308 K, 21000 kPa): 874.4 ± 5.2 kg/m3
- mass density (318 K, 10000 kPa): 502.57 ± 9.6 kg/m3
- mass density (318 K, 12000 kPa): 659.73 ± 7.3 kg/m3
- mass density (318 K, 15000 kPa): 743.17 ± 5.7 kg/m3
- mass density (318 K, 18000 kPa): 790.18 ± 5.3 kg/m3
- mass density (318 K, 21000 kPa): 823.71 ± 5.2 kg/m3
- mass density (328 K, 10000 kPa): 326.4 ± 11 kg/m3
- mass density (328 K, 12000 kPa): 506.85 ± 9 kg/m3
- mass density (328 K, 15000 kPa): 654.94 ± 6.6 kg/m3
- mass density (328 K, 18000 kPa): 724.13 ± 5.5 kg/m3
- mass density (328 K, 21000 kPa): 768.74 ± 5.3 kg/m3
